The subject of test [1] is human T cells (PBMC from allergic donors) stimulated with ragweed extracts. The experiment in a line: Ex vivo human T cell-proliferation assay, ragweed allergen extracts. Particulars: PBMC from allergy donors, 7 days culture, 3H-thymidine incorporation. Background: Dividing cells build labelled thymidine or BrdU into new DNA.
Test [2] relates to human T cells (PBMC from allergic donors) stimulated with house dust mite extracts. Nature of the test: Ex vivo human T cell-proliferation assay, house dust mite allergen extracts.
Test [3] deals with human T cells (PBMC) stimulated with ConA. The experiment in a line: Ex vivo human T cell-proliferation assay, ConA (pan-T cell mitogen) control. The conditions noted are these: pan-T cell mitogen specificity control.
Test [4] deals with invariant chain (li) degradation in PBMC from human blood. Nature of the test: Monitoring cathepsin S inhibition in human blood: p10li fragment by Western blot. Particulars: incubation for 24 h, SDS-PAGE / Western blot.

This note sets out measurements from US6583155B2, “Method for treating allergies using substituted pyrazoles” (priority 2000, dated 2003).

“Also recorded” adds a separate entry of the source.

Take `CS(=O)(=O)N1CCc2c(c(-c3ccc(Br)cc3)nn2CC(O)CN2CCC(n3c(=O)[nH]c4ccc(Cl)cc43)CC2)C1` (stereo not shown) [Example 8, 1-(1-{3-[3-(4-Bromo-phenyl)-5-methanesulfonyl-4,5,6,7-tetrahydro-pyrazolo[4,3-c]pyridin-1-yl]-2-hydroxy-propyl}-piperidin-4-yl)-6-chloro-1,3-dihydro-benzoimidazol-2-one]: in test [1], the “T cell proliferative responses to ragweed extracts (short and giant)” value is given as “inhibition”. Further, the “T cell proliferative responses to Der f extract” value in test [2] (PBMC from an allergy donor, titrated doses of compound, 7 days, 3H-thymidine incorporation (FIG. 3)) was “inhibition”.
Take `Cc1cc(-c2nn(CC(O)CN3CCC(n4c(=O)[nH]c5ccc(Cl)cc54)CC3)c3c2CN(S(C)(=O)=O)CC3)ccc1Cl` (stereo not shown) [Example 53, 6-Chloro-1-(1-{3-[3-(4-chloro-3-methyl-phenyl)-5-methanesulfonyl-4,5,6,7-tetrahydro-pyrazolo[4,3-c]pyridin-1-yl]-2-hydroxy-propyl}-piperidin4-yl)-1,3-dihydro-benzoimidazol-2-one]: the “T cell proliferative responses to ragweed extracts (short and giant)” value in test [1] is given as “inhibition”.
For the compound `CC(C)C[C@H](NC(=O)N1CCOCC1)C(=O)N[C@H](/C=C/S(=O)(=O)c1ccccc1)CCc1ccccc1` [LHVS, 4-morpholinecarboxamide, N-[(1S)-3-methyl-1-[[[(1S, 2E)-1-(2-phenylethyl)-3-(phenylsulfonyl)-2-propenyl]amino]carbonyl]butyl]-], the “T cell proliferative responses to ragweed extracts (short and giant)” value in test [1] is listed as “strongly inhibited; also recorded: inhibition”. Further, the “T cell proliferative responses to house dust mite extracts (Der p and Der f)” value in test [2] (PBMC from allergy donors, 7 days culture, 3H-thymidine incorporation) is “strongly inhibited; also recorded: inhibition”. For the same compound, in test [3], the “T cell proliferative responses induced by ConA” value is recorded as “not affected”. The “p10li fragment of invariant chain (block in degradation of li)” value in test [4] is “the p10li fragment was seen”.
